Test [1] in a line: Membrane lipid array (lipid dot blot). Type of test: binding. On the procedure: (FIGS. 11A and 11B). […] All of the bound lipids PS, PA, PI and PG have an overall negative charge as compared to unbound PC, PE and SM, which are neutral. This extra negative charge is responsible for interacting with positively charged region of PPS1, while the hydrophobic regions of both PPS1 and lipids may interact through van der Waals forces. […] The membrane was first blocked with 3% BSA in TBS-T for 1 hr. After washing with TBS-T, 2.5 μg/ml of biotin labeled PPS1D1 was added. Binding of biotin-PPS1D1 was detected by immunoblotting with streptavidin-HRP antibody. […] The binding affinity of PPS1D1 to PS appears to be strongest among all phospholipids as even at low lipid concentrations, PPS1D1 efficiently binds to it. (FIG. 11D). […] It is well documented that these phospholipids are predominantly present in the inner leaflet in normal cells. […] PC, PE, SM and PS are the most abundant phospholipids. Among these, only PS is an anionic phospholipid. PC and SM are present mostly in the outer leaflet, whereas PE and PS occupy most of inner leaflet with a variety of other anionic phospholipids. However, in stress conditions and in most tumor studied to date, PS and PE flip to the outer leaflet. PPS1D1 has six positively charged residues along with a hydrophobic region. […] However the binding affinity of PPSD1 to these anionic phospholipids is different. […] PPS1D1 could have a structure beyond a simple linear sequence contributing various levels of binding to PS, PA, PI and PG, maintaining highest binding affinity to PS.
Membrane lipid array: Membrane lipid arrays were purchased from Echelon Biosciences. Membranes were blocked in 3% BSA in TBS-T for one hour then incubated with 2.5 μg/ml of biotin-PPS1D1 for two hours. After washing unbound peptoid using TBS-T, bound biotin-PPS1D1 was detected by immunoblotting with Streptavidin-HRP antibody at 1:750 dilution (BioLegend).
One of the major questions arising at this point is how PPS1 or PPS1D1 specifically recognizes PS over PC, as both lipids have negatively charged phosphate head groups. To address this specificity concern, ELISA-like binding assay were expanded to include other membrane phospholipids such as phosphatidylethanolamine (PE), sphingomyelin (SM), phosphatidic acid (PA), phosphatidylinositol (PI) and phosphatidylglycerol (PG). […] This additional negative charge can be responsible for the interaction with the positively charged region of PPS1 or PPS1D1, while the hydrophobic regions of PPS1 or PPS1D1 may interact with hydrophobic tail groups of the lipids through van der Waals forces. […] The membrane was treated with biotin labeled PPS1D1 and binding was detected by immunoblotting with streptavidin-HRP. […] It has been reported that PS can form a bilayer lamellar and reverse hexagonal phase. PS is mainly in a lamellar phase after hydration at physiological pH. By validating our binding through an ELISA-like assay and liposomes, PPS1D1 has an equal opportunity to bind to each phase of PS.
Membrane lipid arrays were purchased from Echelon Biosciences, UT. Membranes were blocked in 3% BSA in TBST for 1 hour and then incubated with 2.5 μg/ml of biotin-PPS1D1 for 2 hours. Membranes were washed with TBST and incubated with Streptavidin-HRP antibody at 1:750 dilutions (BioLegend,CA). After washing, signal was detected with ECL western blotting substrate (Life technologies, CA) using Fluorchem 8900 (Alpha Innotech Imaging system).

The test system of test [2] is HBEC3kt cells. Description: MTS cell viability assay. Type of test: cell-based, human. The following applies: serial dilutions. On the procedure: After confirming the binding and specificity of the PPS1 on HCC4017 lung cancer cells, whether this compound has any biological effects on HCC4017 lung cancer cells was assayed. The gold standard cell viability (MTS) assay was used. HCC4017 cells and HBEC30kt and HBEC3kt cells were grown in 96 well plates on day 1, then treated by serial dilution of PPS1 and control compound C462 on day 2, and the viable cell count was measured using MTS reagent on day 3. […] On one of the repetitive experiments of this assay, Cystinylated-PPS1 compound was included (FIG. 6A). This was the intermediate compound used to attach the FITC-malemide for binding assays described previously. […] The only difference between this Cystinylated-PPS1 and the original PPS1 compound was just a single cysteine amino acid at the C-terminal. […]
A homo-dimeric version of PPS1 was synthesized. […] The resulting dimeric version of the PPS1 compound, PPS1D1 (FIG. 6C), and the analogous dimeric versions of scrambled PC2, PC2D1 (FIG. 6E), and control compound C462, PC462D1 (FIG. 82), were then evaluated for activity. […] As described above, HCC4017 cells and HBEC30kt and HBEC3kt cells were grown in 96 well plates on day 1, treated serial dilutions of PPS1, PPS1D1, C462 and C462D1 on day 2, and viable cell count was measured using MTS reagent on day 3. […]

Setting [3] is: 2.5 μg/ml biotin labeled PPS1D1.
[4] abbreviates: 2.5 μg/ml biotin labeled PPS1D1, listed as PPSD1.

“Also recorded” adds a separate entry of the source. Positions of bridges follow the written chain, without caps; N, C: chain ends. Non-standard residues stand in square brackets, D forms with d. Residues, ends and D or L forms follow the SMILES beside them. Chains are numbered I, II in the order given. Gly(N-piperonyl) = O=C(O)CNCc1ccc2c(c1)OCO2; N(4-MeOBn)Gly = COc1ccc(CNCC(=O)O)cc1; Nrpe = C[C@@H](NCC(=O)O)c1ccccc1; Nlys = NCCCCNCC(=O)O

As to `COc1ccc(CN(CC(=O)N(CCCCN)CC(=O)N[C@@H](CCCCN)C(=O)N[C@H](CCCCN)C(=O)N[C@@H](CCSC)C(=O)NCCCC[C@H](NC(=O)[C@H](CCSC)NC(=O)[C@@H](CCCCN)NC(=O)[C@H](CCCCN)NC(=O)CN(CCCCN)C(=O)CN(Cc2ccc(OC)cc2)C(=O)CN(C(=O)CN(Cc2ccc3c(c2)OCO3)C(=O)CN[C@H](C)c2ccccc2)[C@H](C)c2ccccc2)C(N)=O)C(=O)CN(C(=O)CN(Cc2ccc3c(c2)OCO3)C(=O)CN[C@H](C)c2ccccc2)[C@H](C)c2ccccc2)cc1` [PPS1D1] (I: H-[Nrpe][Gly(N-piperonyl)][Nrpe][N(4-MeOBn)Gly][Nlys]K[dK]MK-NH2 / II: H-[Nrpe][Gly(N-piperonyl)][Nrpe][N(4-MeOBn)Gly][Nlys]K[dK]M; amide I:9-II:C; N-terminus assumed), in test [1] (setting [3]), the “binding to DAG” value is on record as “did not show binding; also recorded: does not bind”, the “binding to PA” value is “a little weaker binding”, the “binding to PC” value is “does not bind” and the “binding to PE” value was “does not bind”. Further, in test [1] (setting [3]), the “binding to PG” value is “weaker binding”, the “binding to PI” value is on record as “weaker binding”, the “binding to PS” value is “strongest binding affinity” and the “binding to SM” value is “does not bind”. In test [1] (setting [4]), the “binding to PC” value is given as “clearly not binding”, the “binding to PE” value is on record as “clearly not binding”, the “binding to PG” value is given as “very weak level” and the “binding to PI” value was “very weak level”. In addition, the “binding to SM” value in test [1] (setting [4]) is “clearly not binding”. Further, the “activity on normal HBEC3kt cells” value in test [2] is listed as “did not have any activity”.

These data come from US10849875B2, “Cancer specific lipid targeted peptidomimetics” (University of Houston System, priority 2015, dated 2020).
